# Laboratory results from patent US20250177339A1, “Methods for Treating Tauopathy” (BioJiva LLC, priority 2020, published 2025).
# “Also recorded” adds a separate entry of the source.
# Key:
# [1] = Pharmacokinetic sampling: ratio of D2-AA to AA in red blood cells of treated patients; type: in vivo, human
# Procedure: (§1) Three patients diagnosed with likely PSP underwent baseline assessment using the 28-item Progressive Supranuclear Palsy Rating Scale (PSPRS) and the Unified Parkinson's Disease Rating Scale (UPDRS). They were then treated with D2-Lin (2.88 g BID; 5.76 g total daily dose) and observed for disease progression. The second patient had their dose increased (2.88 g TID; 8.64 g total daily dose) after the first year of treatment. During the treatment period, scores in the 2 rating scales were determined every 3 months. Pharmacokinetic (PK) sampling was performed at month 3. These analytes included plasma and RBC membrane levels of (D2-LA) and its centrally active metabolite D2-AA.
# At 3 months, the following data was collected:
# At 12 months, the following data was collected:
# The above results evidence that a percent ratio of 11,11-D2-AA to AA in red blood cells of about 3% is necessary to achieve therapeutic results.
# SROS-MSCs = assay: Mitochondrial membrane potential (fluorescent indicator, TMRM) in SROS MSCs; type: cell-based, human; settings: SROS cells from SROS patients; incubation for 72 hours
# Procedure: (§2) The effect of D2-Lin on mesenchymal stem cells derived from patients with SROS was assessed using non-deuterated Lin as a control. MSC preparations from bone marrow aspirates from control subjects were compared to 3 subjects with SROS, following protocols described in Hill S., et al., Free Radic. Biol. Med. (2012) 53:893-906; and Cotticelli M G., et al., Redox Biol. (2013) 1:398-404.
# (§3) MMP is an important indicator of mitochondrial health and is typically kept at […] values (100-140 mV). A long-lasting drop or rise of normal MMP levels may induce loss of cell viability and various pathologies. ROS and LPO levels are directly linked to MMP, and increase exponentially at MMP>140 mV. […]
# (§4) MSC preparations from BM were obtained from control subjects and from the PSP subjects following previously described protocols. […] MSC identity was previously assessed. […]
# (§5) For assessments of glutathione levels, the PSP-MSCs cultures were incubated with 50 μM monochlorobimane (MCB) (Molecular Probes, Invitrogen) for 40 minutes in HEPES buffered salt solution prior to imaging. Cells were then washed with HEPES buffered salt solution and images of the fluorescence of the MCB-GSH were acquired using a Zeiss 710 CLSM with excitation at 405 nm and emission at 435-485 nm. […] The fluorescence measurement was obtained by excitation with 561 nm laser and emission detected above 580 nm. […]
# control MSCs [2] = assay: Mitochondrial membrane potential (fluorescent indicator, TMRM) in control MSCs; type: cell-based, human; settings: incubation for 72 hours
# Procedure: as §2, §3, §4, §5
# SROS MSCs [3] = assay: Mitochondrial shape in SROS MSCs; type: cell-based, human; settings: pre-treatment
# Procedure: as §2
# Presynaptic terminals typically contain multiple mitochondria. Misshaped mitochondria can clog the pathways that transport them along neurons and through long axons and elaborate dendritic arbors. Mattson et al., Neuron (2009) 60:748-766. Accordingly, mitochondrial shape is another characteristic of mitochondrial health. Also, the communication pathway between ER and mitochondria through MAM is compromised in misshaped mitochondria, further disturbing protein folding, lipid metabolism, Ca^2+ homeostasis and apoptosis. Lee et al., Mol. Cells (2018) 41:1000-1007. Coincident with the improvements in MMP with D-PUFA incubation, the abnormalities of mitochondrial shape seen in SROS MSCs were improved with D-PUFA pre-treatment, resulting in more uniformly looking mitochondria.
# SROS-MSC = assay: Mitochondrial DNA level (PicoGreen fluorescence in non-nuclear area) in SROS MSCs; type: cell-based, human; settings: after 72 hours incubation, from 67.5% before, relative to control MSC 100%
# Procedure: as §2
# (§6) The number of mitochondria within the cells is regulated by the balance between mitochondrial biogenesis and mitophagy. Accordingly, for the normal maintenance of the mitochondrial balance, SROS-MSCs should activate mitochondrial biogenesis. […] Various factors, for example excessive fusion can result in a lower number of mitochondria in the cell, leading to impaired respiration, a lower production of ATP, and increased oxidative damage. Arun et al., Curr. Neuropharmacol. (2016) 14:143-154. However, after 72 hours incubation of the cells with D2-PUFAs mitochondrial DNA increased for both control and SROS MSCs.
# control MSC = assay: Mitochondrial DNA level (PicoGreen fluorescence in non-nuclear area) in control MSCs; type: cell-based, human; settings: after 72 hours incubation, from 100% before
# Procedure: as §2, §6
# SROS MSCs [4] = assay: Rate of lipid peroxidation (BODIPY C11) in SROS/PSP MSCs; type: cell-based, human; settings: 72-hour incubation; for rate of lipid peroxidation (LPO), in words: SROS/PSP MSCs, BODIPY C11
# Procedure: as §2
# (§7) LPO has been implicated as an early and pivotal factor in SROS. Specifically, increased levels of n-6 PUFA oxidation products such as 4-HNE were reported, as a direct consequence of the LPO chain reaction. Accordingly, the difference in basal MMP and ROS generation between control and the 3 cell lines of SROS MSCs was associated with increased rates of LPO, as detected by the LPO-specific probe, BODIPY C11.
# (§8) MSC preparations from BM were obtained from control subjects and from the PSP subjects following previously described protocols. In short, MSCs were isolated from BM aspirates seeding 50,000 mononucleated cells/cm2 in αMEM (Thermo Fisher Scientific, Waltham, MA, USA) supplemented with 10% fetal bovine serum (FBS; Thermo Fisher Scientific), in T75 flasks. The cultures were incubated at 37° C., 20% O2, 5% CO2. Medium changes were performed twice a week. Two weeks after initial seeding, primary MSC colonies were detached with a 10-minute incubation at 37° C. with TrypLE Select Enzyme (Thermo Fisher Scientific) and replated at 4000 cells/cm^2 in the same medium. MSC identity was previously assessed. Subsequent passages were performed following the same steps. Passage 4-6 MSCs were used for all experiments. […]
# Lipid peroxidation was measured using confocal microscopy (Zeiss 710 LSM with an integrated META detection system). The rate of lipid peroxidation was measured using C11-BODIPY 581/591 ([…]; Molecular probes) which was excited by the 488 and 543 nm laser line and fluorescence measured using a band-pass filter from 505 to 550 nm and 560 nm long-pass filter (40× oil-objective). […]
# control MSCs [5] = assay: Rate of lipid peroxidation (BODIPY C11) in control MSCs; type: cell-based, human; settings: 72-hour incubation
# Procedure: as §2, §7
# Lipid peroxidation was measured using confocal microscopy (Zeiss 710 LSM with an integrated META detection system). The rate of lipid peroxidation was measured using C11-BODIPY 581/591 ([…]; Molecular probes) which was excited by the 488 and 543 nm laser line and fluorescence measured using a band-pass filter from 505 to 550 nm and 560 nm long-pass filter (40× oil-objective). Illumination intensity was kept to a minimum (0.1-0.2% of laser output) to prevent phototoxicity and the pinhole was set to give an optical slice of […]. […]
# SROS MSCs [6] = assay: Glutathione level (monochlorobimane) in SROS/PSP MSCs; type: cell-based, human; settings: for glutathione (GSH) level, in words: SROS/PSP MSCs, MCB intensity
# Procedure: as §2
# Glutathione-related machinery is the major mechanism involved with slowing down the inhibition/propagation the LPO chain as well as mopping up the toxic end products of LPO. Consumption of the endogenous antioxidant glutathione is an indirect measure of oxidative stress.
# as §8
# For assessments of glutathione levels, the PSP-MSCs cultures were incubated with 50 μM monochlorobimane (MCB) (Molecular Probes, Invitrogen) for 40 minutes in HEPES buffered salt solution prior to imaging. Cells were then washed with HEPES buffered salt solution and images of the fluorescence of the MCB-GSH were acquired using a Zeiss 710 CLSM with excitation at 405 nm and emission at 435-485 nm. Mitochondrial ROS generation rate was assessed using MitoTracker® Red CM-H2XRos (Thermo Fisher Scientific) which accumulates into mitochondria upon oxidation. The fluorescence measurement was obtained by excitation with 561 nm laser and emission detected above 580 nm. Mitochondrial membrane potential (ΔΨm) was assessed using 25 nM tetramethylrhodamine methyl ester (TMRM, Thermo Fisher Scientific) at 560 nm excitation and fluorescence was measured above 580 nm. Z-stack images were collected and the fluorescence intensity of TMRM was analyzed using Zen software (Zeiss). […]
# Glutathione levels were measured using MCB. […]
# [7] = tested on: patients diagnosed with likely PSP; assay: Progressive Supranuclear Palsy Rating Scale (PSPRS) in treated patients; type: in vivo, human; settings: three PSP patients; 2.88 g BID; after 3 months of therapy; historical decline 0.91 points/month; +/-0.23 SEM
# Procedure: as §1
# (§9) The three patients were 2 males ([…]) and one person each of whom had pre-treatment symptom duration of 6 years and 3 years for the two males and 2 years for the person. The baseline PSPRS for the two males was 17 and 12 respectively and 13 for the person. The baseline UPDRS for the two males was 44 and 36 respectively and 21 for the person.
# (§10) After 3 months of therapy, the slope of the PSPRS changed from the historical decline of 0.91 points/month to a mean of decline of 0.16 points/month (+/−0.23 SEM). The UPDRS slope changed from an expected increase of 0.95 points/month to an average increase in score of 0.28 points/month (+/−0.41 SEM).
# [8] = tested on: patients diagnosed with likely PSP; assay: Unified Parkinson's Disease Rating Scale (UPDRS) in treated patients; type: in vivo, human; settings: three PSP patients; 2.88 g BID; after 3 months of therapy; expected increase 0.95 points/month; +/-0.41 SEM
# Procedure: as §1, §9, §10
# [9] = tested on: MSCs derived from patients with SROS; assay: Mitochondrial health (morphology, number, function) of SROS MSCs; type: cell-based, human; settings: incubation for 72 hours
# Procedure: as §2
# These include changes in mitochondrial morphology, number, and function.
SMILES,"% ratio of 11,11-D2-AA to AA ([1]; Patient 1, evaluated at 4 months of D2-Lin treatment) [%]","% ratio of 11,11-D2-AA to AA ([1]; Patient 1, evaluated at 13 months of D2-Lin treatment) [%]","% ratio of 11,11-D2-AA to AA ([1]; Patient 2, at 3 months of D2-Lin treatment) [%]","% ratio of 11,11-D2-AA to AA ([1]; Patient 2, at 12 months of D2-Lin treatment) [%]","% ratio of 11,11-D2-AA to AA ([1]; Patient 3, at 3 months of D2-Lin treatment) [%]","% ratio of 11,11-D2-AA to AA ([1]; Patient 3, at 12 months of D2-Lin treatment) [%]",mitochondrial membrane potential (MMP) (SROS-MSCs),mitochondrial membrane potential (MMP) (control MSCs [2]),abnormalities of mitochondrial shape (SROS MSCs [3]),level of mitochondrial DNA (estimation of number of mitochondria) (SROS-MSC) [%],level of mitochondrial DNA (estimation of number of mitochondria) (control MSC) [%],"rate of lipid peroxidation (LPO) (SROS MSCs [4]; SROS MSCs, % of control, from 161.8% before, N=8) [%]","rate of lipid peroxidation (LPO), in words (SROS MSCs [4])","rate of LPO, % of the pre-treatment value (control MSCs [5]) [%]","glutathione (GSH) level, in words (SROS MSCs [6])","glutathione (GSH) level, in words (SROS MSCs [6]; listed as D2-PUFAs)","slope of the PSPRS, mean decline [7] [points/month]","UPDRS slope, average increase in score [8] [points/month]","mitochondrial morphology, number, and function [9]","glutathione levels less than those found in the D2-Lin test (SROS MSCs [6]; PSP MSCs, after incubation, compared with D2-Lin-incubated PSP MSCs)"
"[2H]C([2H])(/C=C\C/C=C\C/C=C\CCCC(=O)O)/C=C\CCCCC [13,13-D2-Arachadonic acid]",5.9,10.5,3.3,6.9,5,8.6,,,,,,,,,,,,,,
"[2H]C([2H])(/C=C\CCCCC)/C=C\CCCCCCCC(=O)O [D2-Lin, 11,11-D2-Linoleic acid]",,,,,,,reduced,no effect,improved,105.4,109,109.8,reversed; also recorded: restored the SROS MSCs to normal levels; also recorded: returned to normal levels,84.3,reversed; also recorded: restored to HC levels,significantly increased,0.16,0.28,restores these parameters to control MSC levels,
"CCCCC/C=C\C/C=C\CCCCCCCC(=O)O [H2-LA, Non-deuterated linoleic acid, reference compound]",,,,,,,,,,,,,remained elevated at over two times that of the treated levels,,remained low,,,,,about 30%
